Laboratory results taken from BindingDB's records for doi:10.1016/j.chembiol.2013.08.005 (University of California San Francisco, 2013).

Legend:
Urea transporter 1 = biological target: T1, Urea transporter 1 (Rattus norvegicus, UniProt P97689); test: UT-B Inhibition Assay
T1 sequence (P97689 whole entry): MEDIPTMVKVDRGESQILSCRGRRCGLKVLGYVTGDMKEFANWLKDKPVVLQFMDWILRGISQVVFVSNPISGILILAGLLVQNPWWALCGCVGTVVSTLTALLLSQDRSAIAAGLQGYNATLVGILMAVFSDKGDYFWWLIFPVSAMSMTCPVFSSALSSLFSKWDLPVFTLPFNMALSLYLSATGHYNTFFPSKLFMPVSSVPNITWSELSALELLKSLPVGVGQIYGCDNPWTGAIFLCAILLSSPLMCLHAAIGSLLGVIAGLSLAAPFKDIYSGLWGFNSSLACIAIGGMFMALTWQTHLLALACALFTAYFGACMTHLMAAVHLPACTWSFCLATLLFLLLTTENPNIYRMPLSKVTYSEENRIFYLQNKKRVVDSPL
Description: Erythrocyte suspension (100 µL) was added to each well of a 96-well microplate to which test compounds were added. After 15 min incubation, 20 µL of the erythrocyte suspension was added to each well of a 96-well plate containing 180 µL PBS containing 1% DMSO, followed by vigorous mixing. The absorbance was measured at 710 nm.

Urea transporter 2 = biological target: T2, Urea transporter 2 (Rattus norvegicus, UniProt Q62668); test: UT-A1 Inhibition Assay
T2 sequence (Q62668 whole entry): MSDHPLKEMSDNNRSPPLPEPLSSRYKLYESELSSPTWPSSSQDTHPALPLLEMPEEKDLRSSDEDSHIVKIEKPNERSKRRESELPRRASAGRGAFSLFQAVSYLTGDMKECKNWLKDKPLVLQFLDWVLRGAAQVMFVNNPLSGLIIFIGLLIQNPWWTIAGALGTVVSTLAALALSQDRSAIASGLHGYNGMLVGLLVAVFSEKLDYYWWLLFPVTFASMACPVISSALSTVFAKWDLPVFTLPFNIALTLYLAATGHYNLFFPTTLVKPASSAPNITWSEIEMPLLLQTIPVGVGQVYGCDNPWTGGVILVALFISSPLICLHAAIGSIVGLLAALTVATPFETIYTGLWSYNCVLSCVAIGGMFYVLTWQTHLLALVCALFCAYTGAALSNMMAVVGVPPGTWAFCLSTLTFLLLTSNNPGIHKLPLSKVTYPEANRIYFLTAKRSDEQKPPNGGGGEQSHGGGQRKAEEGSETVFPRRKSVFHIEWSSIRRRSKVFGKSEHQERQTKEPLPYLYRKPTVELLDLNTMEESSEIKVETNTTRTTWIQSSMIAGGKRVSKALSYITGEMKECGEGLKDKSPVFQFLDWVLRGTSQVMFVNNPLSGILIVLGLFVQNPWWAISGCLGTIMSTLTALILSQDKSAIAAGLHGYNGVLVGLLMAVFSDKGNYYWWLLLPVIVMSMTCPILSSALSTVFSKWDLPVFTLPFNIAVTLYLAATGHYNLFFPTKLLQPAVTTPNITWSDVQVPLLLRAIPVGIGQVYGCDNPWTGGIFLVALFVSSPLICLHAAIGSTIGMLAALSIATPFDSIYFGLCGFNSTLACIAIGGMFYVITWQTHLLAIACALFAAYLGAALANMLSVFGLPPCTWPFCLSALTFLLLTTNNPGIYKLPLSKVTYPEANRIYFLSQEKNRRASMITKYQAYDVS
Description: The urea concentration dependence of UT-A1 inhibition was studied from inhibitor concentration response data (0.3 - 60 µM) using different of urea gradients (200 - 1,600 mM). The kinetics of UT-A1 inhibition was measured by adding inhibitors (3 µM) at different times prior to assay.

Cc1ccc(C)c(S(=O)(=O)c2nnn3c2nc(NC(C)C)c2sccc23)c1
IC50 (Urea transporter 1): 15 µM | IC50 (Urea transporter 2): 3.8 µM

CCc1ccc(S(=O)(=O)c2nnn3c2nc(NCCCOC)c2sccc23)cc1
IC50 (Urea transporter 1): 28 µM | IC50 (Urea transporter 2): > 50 µM

CSc1nc(Nc2ccc(Nc3ccccc3)cc2)nc(SC)n1 [1‐N‐[bis(methylsulfanyl)‐1,3,5‐triazin‐2‐yl]‐4‐N‐ phenylbenzene‐1,4‐diamine]
IC50 (Urea transporter 1): > 50 µM | IC50 (Urea transporter 2): 45 µM

CC(=O)OCCOc1ccccc1/C=C1/SC(=N)NC1=O [2‐(2‐{[(5E)‐2‐imino‐4‐oxo‐1,3‐thiazolidin‐5‐ ylidene]methyl}phenoxy)ethyl acetate]
IC50 (Urea transporter 1): 4.8 µM | IC50 (Urea transporter 2): 3.7 µM

COc1cccc(Nc2nc(Nc3ccc(C)cc3)nc(Sc3ccc(C)cc3)n2)c1 [2‐N‐(3‐methoxyphenyl)‐4‐N‐(4‐methylphenyl)‐6‐[(4‐ methylphenyl)sulfanyl]‐1,3,5‐triazine‐2,4‐diamine]
IC50 (Urea transporter 1): 42 µM | IC50 (Urea transporter 2): > 50 µM

COc1cccc(CNC(=O)c2ccc3cccc(O)c3n2)c1 [8‐hydroxy‐N‐[(3‐methoxyphenyl)methyl]quinoline‐2‐carboxamide]
IC50 (Urea transporter 1): > 50 µM

COc1ccc(Nc2cc(C(=O)N3CCSCC3)nc3c(OC)cccc23)cc1 [8‐methoxy‐N‐(4‐methoxyphenyl)‐2‐(thiomorpholine‐4‐ carbonyl)quinolin‐4‐amine]
IC50 (Urea transporter 1): 6.2 µM | IC50 (Urea transporter 2): 3.5 µM

COc1cccc2c(Nc3cccc(SC)c3)cc(C(=O)N3CCCCC3)nc12 [8‐methoxy‐N‐[3‐(methylsulfanyl)phenyl]‐2‐ (piperidine‐1‐carbonyl)quinolin‐4‐amine]
IC50 (Urea transporter 1): 20 µM | IC50 (Urea transporter 2): 3.8 µM

O=S(=O)(c1ccc(Br)cc1)c1nnn2c1nc(N=S1C=CC=C1)c1sccc12 [10‐(4‐bromobenzenesulfonyl)‐N‐[(1Z)‐1λ⁴‐thiophen‐1‐ ylidene]‐5‐thia‐1,8,11,12‐ tetraazatricyclo[7.3.0.0 ,⁶]dodeca‐2(6),3,7,9,11‐ pentaen‐7‐amine]
IC50 (Urea transporter 1): 2.8 µM | IC50 (Urea transporter 2): > 50 µM

[H]/N=C1/NC(=O)/C(=C\c2cccc(OC)c2OC)S1 [(5E)‐5‐[(2,3‐dimethoxyphenyl)methylidene]‐2‐imino‐1,3‐thiazolidin‐4‐one]
IC50 (Urea transporter 1): 43 µM | IC50 (Urea transporter 2): 7 µM

COc1cccc(/C=C2/SC(=N)NC2=O)c1O [(5E)‐5‐[(2‐hydroxy‐3‐methoxyphenyl)methylidene]‐2‐ imino‐1,3‐thiazolidin‐4‐one]
IC50 (Urea transporter 1): 6.3 µM | IC50 (Urea transporter 2): 4.6 µM

COc1cc(/C=C2/SC(=N)NC2=O)ccc1O [(5E)‐5‐[(4‐hydroxy‐3‐methoxyphenyl)methylidene]‐2‐ imino‐1,3‐thiazolidin‐4‐one]
IC50 (Urea transporter 1): 6.2 µM | IC50 (Urea transporter 2): 25 µM

COc1ccc(Nc2cc(C(=O)N3CCSCC3)nc3c(OC)cccc23)cc1Cl [N‐(3‐chloro‐4‐methoxyphenyl)‐8‐methoxy‐2‐ (thiomorpholine‐4‐carbonyl)quinolin‐4‐amine]
IC50 (Urea transporter 1): 27 µM | IC50 (Urea transporter 2): 19 µM

COc1cccc2c(Nc3ccc(C)c(Cl)c3)cc(C(=O)N3CCCCC3)nc12 [N‐(3‐chloro‐4‐methylphenyl)‐8‐methoxy‐2‐ (piperidine‐1‐carbonyl)quinolin‐4‐amine]
IC50 (Urea transporter 1): > 50 µM | IC50 (Urea transporter 2): 24 µM

COc1cccc2c(Nc3ccc(C)c(F)c3)cc(C(=O)N3CCCCC3)nc12 [N‐(3‐fluoro‐4‐methylphenyl)‐8‐methoxy‐2‐ (piperidine‐1‐carbonyl)quinolin‐4‐amine]
IC50 (Urea transporter 1): > 50 µM | IC50 (Urea transporter 2): 25 µM

CCOc1ccc(Nc2cc(C(=O)N3CCCCC3)nc3c(OC)cccc23)cc1 [N‐(4‐ethoxyphenyl)‐8‐methoxy‐2‐(piperidine‐1‐ carbonyl)quinolin‐4‐amine]
IC50 (Urea transporter 1): 16 µM | IC50 (Urea transporter 2): 3.3 µM

CCOc1ccc(Nc2cc(C(=O)N3CCSCC3)nc3c(OC)cccc23)cc1 [N‐(4‐ethoxyphenyl)‐8‐methoxy‐2‐(thiomorpholine‐4‐ carbonyl)quinolin‐4‐amine]
IC50 (Urea transporter 1): 34 µM | IC50 (Urea transporter 2): 24 µM

CNc1nc2c(S(=O)(=O)c3ccccc3)nnn2c2ccsc12 [UT-A1 inhibitor D2]
IC50 (Urea transporter 1): 35 µM | IC50 (Urea transporter 2): > 50 µM
